Our source for the melting point values is patent US8962674B2 (Tokyo Institute of Technology, priority 2006, dated 2015).

`COc1cc(O)cc(/C=C/C(=O)CC(=O)/C=C/c2ccc(OC)c(O)c2)c1` [CU182, (1E,6E)-1-(3-hydroxy-4-methoxyphenyl)-7-(3-hydroxy-5-methoxyphenyl)hepta-1,6-diene-3,5-dione] had a melting point of 196 to 200 °C.
In turn, `CN(C)c1ccc(C(F)(F)F)cc1/C=C/C(=O)CC(=O)/C=C/c1ccc(O)cc1` [CU535, (1E,6E)-1-(2-dimethylamino-5-trifluoromethylphenyl)-7-(4-hydroxyphenyl)hepta-1,6-diene-3,5-dione] came in with a melting point of 68 to 74 °C.
To `O=C(/C=C/c1ccc(O)cc1)CC(=O)/C=C/c1ccc(-n2ccnc2)cc1` [CU329, (1E,6E)-1-(4-hydroxyphenyl)-7-[4-(1H-imidazol-1-yl)phenyl]hepta-1,6-diene-3,5-dione] belongs 255 to 260 °C; to `O=C(/C=C/c1ccc(O)cc1)CC(=O)/C=C/c1ccccc1C(F)(F)F` [CU467, (1E,6E)-1-(4-hydroxyphenyl)-7-(2-trifluoromethylphenyl)hepta-1,6-diene-3,5-dione], 181 to 185 °C; to `O=C(/C=C/c1ccc(O)cc1)CC(=O)/C=C/c1ccccc1-c1ccccc1` [CU472, (1E,6E)-1-(biphenyl-2-yl)-7-(4-hydroxyphenyl)hepta-1,6-diene-3,5-dione], 180 to 188 °C.
In turn, `COc1ccc(/C=C/C(=O)CC(=O)/C=C/c2cc(O)ccc2O)cc1O` [CU091, (1E,6E)-1-(2,5-dihydroxyphenyl)-7-(3-hydroxy-4-methoxyphenyl)hepta-1,6-diene-3,5-dione] returned a melting point of 115 to 121 °C.
With `O=C(/C=C/c1ccc(O)cc1)CC(=O)/C=C/c1ccc2ccccc2c1` [CU149, (1E,6E)-1-(4-hydroxyphenyl)-7-(naphthalen-2-yl)hepta-1,6-diene-3,5-dione], the melting point is 225 to 230 °C.
Molecule `CCN(CC)c1ccc(/C=C/C(=O)CC(=O)/C=C/c2ccc(O)cc2)c(OCc2ccc(OC)cc2)c1` [CU448, (1E,6E)-1-[4-diethylamino-2-(4-methoxybenzyloxy)phenyl]-7-(4-hydroxyphenyl)hepta-1,6-diene-3,5-dione] showed a melting point of 71 to 78 °C.
To `COc1cc(/C=C/C(=O)CC(=O)/C=C/c2cccc(O)c2O)ccc1O` [CU096, (1E,6E)-1-(2,3-dihydroxyphenyl)-7-(4-hydroxy-3-methoxyphenyl)hepta-1,6-diene-3,5-dione] belongs 82 to 89 °C.
The same measure for `CCn1c2ccccc2c2cc(CCC(=O)CC(=O)CCc3ccc(OC)c(O)c3)ccc21` [CU508, 1-(9-ethyl-9H-carbazol-3-yl)-7-(3-hydroxy-4-methoxyphenyl)heptane-3,5-dione]: 97 to 100 °C; for `O=C(/C=C/c1ccc(O)c(Cl)c1)CC(=O)/C=C/c1ccc(O)c(Cl)c1` [CU387, (1E,6E)-1,7-bis(3-chloro-4-hydroxyphenyl)hepta-1,6-diene-3,5-dione]: 203 to 208 °C; for `COc1cccc(/C=C/C(=O)CC(=O)/C=C/c2ccc(O)cc2)c1OC` [CU069, (1E,6E)-1-(2,3-dimethoxyphenyl)-7-(4-hydroxyphenyl)hepta-1,6-diene-3,5-dione]: 70 to 72 °C.
For the molecule `O=C(/C=C/c1ccc(O)cc1)CC(=O)/C=C/c1ccc2[nH]ncc2c1` [CU349, (1E,6E)-1-(4-hydroxyphenyl)-7-(1H-indazol-5-yl)hepta-1,6-diene-3,5-dione], the melting point lay in the range of 148 to 152 °C.
In the case of `COc1cc(/C=C/C(=O)CC(=O)/C=C/c2ccccc2OC)ccc1O` [CU067, (1E,6E)-1-(4-hydroxy-3-methoxyphenyl)-7-(2-methoxyphenyl)hepta-1,6-diene-3,5-dione], the melting point fell in the range of 61 to 66 °C.
`O=C(/C=C/c1ccc2c(c1)OCCO2)CC(=O)/C=C/c1ccc2c(c1)OCCO2` [CU356, (1E,6E)-1,7-bis(1,4-benzodioxan-6-yl)hepta-1,6-diene-3,5-dione] showed a melting point of 184 to 187 °C.
For `COc1cccc(OC)c1/C=C/C(=O)CC(=O)/C=C/c1c(OC)cccc1OC` [CU390, (1E,6E)-1,7-bis(2,6-dimethoxyphenyl)hepta-1,6-diene-3,5-dione], the melting point lay in the range of 180 to 184 °C.
For the molecule `O=C(/C=C/c1ccc(O)cc1)CC(=O)/C=C/c1ccc2oc(=O)ccc2c1` [CU445, (1E,6E)-1-(4-hydroxyphenyl)-7-(coumarin-6-yl)hepta-1,6-diene-3,5-dione], the melting point lay in the range of 240 to 246 °C.
With `O=C(/C=C/c1ccc(O)cc1)CC(=O)/C=C/c1ccccc1N1CCCCC1` [CU497, (1E,6E)-1-(4-hydroxyphenyl)-7-[2-(piperidin-1-yl)phenyl]hepta-1,6-diene-3,5-dione], the melting point fell in the range of 77 to 84 °C.
To `O=C(/C=C/c1ccc(Oc2ccccc2)cc1)CC(=O)/C=C/c1ccc(Oc2ccccc2)cc1` [CU370, (1E,6E)-1,7-bis(4-phenoxyphenyl)hepta-1,6-diene-3,5-dione] belongs 193 to 196 °C; to `COc1ccc(/C=C/C(=O)CC(=O)/C=C/c2ccc(O)cc2)c(O)c1` [CU251, (1E,6E)-1-(2-hydroxy-4-methoxyphenyl)-7-(4-hydroxyphenyl)hepta-1,6-diene-3,5-dione], 137 to 139 °C.
For the molecule `COc1ccc2cc(/C=C/C(=O)CC(=O)/C=C/c3ccc(OC)c(O)c3)ccc2c1` [CU171, (1E,6E)-1-(3-hydroxy-4-methoxyphenyl)-7-(6-methoxynaphthalen-2-yl)hepta-1,6-diene-3,5-dione], the melting point was in the range of 175 to 181 °C.
Molecule `Cc1ccc(S(=O)(=O)n2ccc3ccc(/C=C/C(=O)CC(=O)/C=C/c4ccc(O)cc4)cc32)cc1` [CU404, (1E,6E)-1-(4-hydroxyphenyl)-7-(1-tosyl-1H-indol-6-yl)hepta-1,6-diene-3,5-dione] had a melting point of 107 to 112 °C.
In the case of `O=C(/C=C/c1ccc(O)cc1)CC(=O)/C=C/c1cc(OCc2ccccc2)ccc1-c1ccccc1` [CU527, (1E,6E)-1-(4-benzyloxybiphenyl-2-yl)-7-(4-hydroxyphenyl)hepta-1,6-diene-3,5-dione], the melting point lay within 172 to 178 °C.
For the molecule `COc1ccc2cc(/C=C/C(=O)CC(=O)/C=C/c3ccc(O)cc3)ccc2c1` [CU166, (1E,6E)-1-(4-hydroxyphenyl)-7-(6-methoxynaphthalen-2-yl)hepta-1,6-diene-3,5-dione], the melting point lay within 217 to 220 °C.
On to `O=C(/C=C/c1ccc(O)cc1)CC(=O)/C=C/c1cc(C(F)(F)F)ccc1F` [CU473, (1E,6E)-1-(2-fluoro-5-trifluoromethylphenyl)-7-(4-hydroxyphenyl)hepta-1,6-diene-3,5-dione], for which the melting point was in the range of 168 to 174 °C.
To `COc1cc(/C=C/C(=O)CC(=O)/C=C/c2ccc(O)c(Cl)c2)ccc1O` [CU007, (1E,6E)-1-(3-chloro-4-hydroxyphenyl)-7-(4-hydroxy-3-methoxyphenyl)hepta-1,6-diene-3,5-dione] belongs 90 to 95 °C; to `COc1cc(/C=C/C(=O)CC(=O)/C=C/c2ccc3[nH]ccc3c2)ccc1O` [CU188, (1E,6E)-1-(4-hydroxy-3-methoxyphenyl)-7-(1H-indol-5-yl)hepta-1,6-diene-3,5-dione], 135 to 138 °C; to `COc1ccc(/C=C/C(=O)CC(=O)/C=C/c2ccc(N(C)C)c3ccccc23)cc1O` [CU168, (1E,6E)-1-(4-dimethylaminonaphthalen-1-yl)-7-(3-hydroxy-4-methoxyphenyl)hepta-1,6-diene-3,5-dione], 146 to 150 °C.
To `COc1cc(/C=C/C(=O)CC(=O)/C=C/c2ccc(O)c(OC)c2)cc(OC)c1` [CU100, (1E,6E)-1-(3,5-dimethoxyphenyl)-7-(4-hydroxy-3-methoxyphenyl)hepta-1,6-diene-3,5-dione] belongs 50 to 55 °C.
Molecule `CCCN(CCC)C(=O)c1cccc(/C=C/C(=O)CC(=O)/C=C/c2ccc(O)cc2)c1` [CU474, (1E,6E)-1-[3-(di-n-propylaminocarbonyl)phenyl]-7-(4-hydroxyphenyl)hepta-1,6-diene-3,5-dione] gave a melting point of 159 to 165 °C.
For the molecule `COc1ccc(/C=C/C(=O)CC(=O)/C=C/c2cc(Cl)cc(Cl)c2O)cc1O` [CU276, (1E,6E)-1-(3,5-dichloro-2-hydroxyphenyl)-7-(3-hydroxy-4-methoxyphenyl)hepta-1,6-diene-3,5-dione], the melting point lay in the range of 212 to 214 °C.
As for `CC(C)(C)OC(=O)N[C@H](Cc1ccccc1)C(=O)Nc1ccc(/C=C/C(=O)CC(=O)/C=C/c2ccc(O)cc2)cc1` [CU406, (1E,6E)-1-[4-((R)-2-tert-butoxycarbonylamino-3-phenylpropionylamino)phenyl]-7-(4-hydroxyphenyl)hepta-1,6-diene-3,5-dione], the melting point is 113 to 120 °C.
For `Cc1ccc(S(=O)(=O)n2cc(/C=C/C(=O)CC(=O)/C=C/c3ccc(O)cc3)c3ccccc32)cc1` [CU403, (1E,6E)-1-(4-hydroxyphenyl)-7-(1-tosyl-1H-indol-3-yl)hepta-1,6-diene-3,5-dione], the melting point is 218 to 222 °C.
As to `COc1cc(/C=C/C(=O)CC(=O)/C=C/c2ccc3c(c2)OCCO3)ccc1O` [CU209, (1E,6E)-1-(2,3-dihydrobenzo[1,4]dioxin-6-yl)-7-(4-hydroxy-3-methoxyphenyl)hepta-1,6-diene-3,5-dione], the melting point was in the range of 141 to 145 °C.
Molecule `COc1ccc(/C=C/C(=O)CC(=O)/C=C/c2c(O)cccc2OC)cc1O` [CU280, (1E,6E)-1-(2-hydroxy-6-methoxyphenyl)-7-(3-hydroxy-4-methoxyphenyl)hepta-1,6-diene-3,5-dione] registered a melting point of 181 to 185 °C.
`CN(C)c1ccc(-c2ccccc2)cc1/C=C/C(=O)CC(=O)/C=C/c1ccc(O)cc1` [CU537, (1E,6E)-1-(4-dimethylaminobiphenyl-3-yl)-7-(4-hydroxyphenyl)hepta-1,6-diene-3,5-dione] displayed a melting point of 82 to 88 °C.
The molecule `COc1cc(/C=C/C(=O)CC(=O)/C=C/c2ccc(F)c(OC)c2)ccc1O` [CU138, (1E,6E)-1-(4-fluoro-3-methoxyphenyl)-7-(4-hydroxy-3-methoxyphenyl)hepta-1,6-diene-3,5-dione] displayed a melting point of 150 to 155 °C.
`COCOc1ccc(OC)cc1/C=C/C(=O)CC(=O)/C=C/c1cc(OC)ccc1O` [CU456, (1E,6E)-1-(2-hydroxy-5-methoxyphenyl)-7-[5-methoxy-2-(methoxymethoxy)phenyl]hepta-1,6-diene-3,5-dione]: the melting point was 131 to 138 °C.

The melting point is the temperature of the solid-liquid transition.
